# Data: paper PMC12186843, “Targeting GABAergic Hypofunction Associated with Schizophrenia: Identification of α1β2γ2GABA‑A Receptor Ligands with Neuroprotective and Antipsychotic Properties” (ACS Chemical Neuroscience, 2025)
# How the values were obtained:
# Wistar rats [1] = test: Prepulse inhibition (PPI) test with MK-801; type: in vivo, rat; details: i.p.
# Procedure: All behavioral procedures were conducted using drug-naive male Wistar rats (Charles River, Sulzfeld, Germany), (n = 8/per group). Animals were housed in groups of four per standard plastic cage under controlled environmental conditions (temperature: 22 ± 1 °C, humidity: 60%, and a 12:12 light-dark cycle with lights on at 07:00 a.m.). Animals were obtained from the breeder 2 weeks prior to the initiation of behavioral procedures, during which time they were weighed and handled multiple times. Animals had ad libitum access to tap water and standard laboratory chow (Labofeed H, WPIK, Kcynia, Poland). […]
# The PPI apparatus consisted of eight startle chambers (SR-LAB, San Diego Instruments, San Diego, CA, USA). […] Startle responses, reflecting the movement of animals within the cylinder following an acoustic stimulus, were measured with a piezoelectric transducer positioned beneath the frame. […]
# The preliminary stimuli were followed by 60 trials of varying intensities presented in random order, with a mean intertrial interval (ITI) of 22.5 s. […] Startle amplitudes were calculated as the average response across 10 trials for each stimulation type. […] Startle responses (in manufacturer’s arbitrary units), and magnitudes of PPI (%) were analyzed with the aid of a one-way analysis of variance (ANOVA). […]
# PAMPA permeability assay = type: in vitro ADME; details: pH 7.4, PAMPA, PBS pH 7.4, 100 μM, zolpidem tested as tartrate, read-out: Permeability Pe ± SD
# Procedure: PAMPA. The precoated PAMPA Plate System Gentest, obtained from Corning (Tewksbury, MA, USA), was used for the permeability study. The system includes a 96-well receiver filter plate precoated with structured phospholipid layers and a matching donor microplate. Stock solutions of the test compounds and reference drugs were prepared in PBS buffer (pH 7.4) at a final concentration of 100 μM. Each compound solution (200 μL) was added to the donor wells and incubated at room temperature for 5 h. The quantity of molecules that penetrated from the donor wells to the acceptor wells through the phospholipid membrane was determined using UPLC-MS spectrometry (Waters ACQUITY TQD system with the TQ Detector, Waters, Milford, USA) with an internal standard. Permeability coefficients (Pe, cm/s) were calculated according to the formula provided by the manufacturer.
# Wistar rats [2] = test: Amphetamine-induced hyperlocomotion; type: in vivo, rat; details: i.p., doses of 3.0 mg/kg and 10.0 mg/kg, amphetamine 1.0 mg/kg i.p., p < 0.01
# Procedure: (§1) 8 (A). […] The dose of 0 mg/kg corresponds to subjects treated with vehicle and amphetamine (1.0 mg/kg, i.p.). Data are presented as the mean ± SEM (n = 8). One-way ANOVA F(3,28)=0.2, p > 0.05, one-way ANOVA F(3,28)=[…], p < 0.01**. (B). […] The dose of 0 mg/kg corresponds to subjects treated with vehicle and MK-801 (0.3 mg/kg, i.p.). Data are presented as the mean ± SEM (n = 8). ** p < 0.01, Newman-Keuls test, F(3,28)=5.29, p = 0.005. (C) Effects of compound 9, administered at doses ranging from 1 to 10 mg/kg, on spontaneous locomotor activity in rats. Data are presented as the mean ± SEM (n = 8). One-way ANOVA F(3,28) = 0.3, p > 0.05, one-way ANOVA F(3,28) = 6.7, p < 0.01*.
# (§2) All behavioral procedures were conducted using drug-naive male Wistar rats (Charles River, Sulzfeld, Germany), (n = 8/per group). Animals were housed in groups of four per standard plastic cage under controlled environmental conditions (temperature: 22 ± 1 °C, humidity: 60%, and a 12:12 light-dark cycle with lights on at 07:00 a.m.). […]
# (§3) All procedures were performed in a sound-attenuated experimental room between 9:00 a.m. and 3:00 p.m. […] Locomotor activity was measured in black octagonal cages (80 cm diameter, 30 cm height) amid dim lighting and constant white noise (65 dB). […] Locomotor activity (cm/30 min) was recorded and analyzed using an automated motion monitoring system (Videomot, TSE, Bad Homburg, Germany). […]
# Wistar rats [3] = test: MK-801-induced hyperlocomotion; type: in vivo, rat; details: i.p., 1, 3 and 10 mg/kg, significant effect at 10 mg/kg, MK-801 0.3 mg/kg i.p.
# Procedure: as §1, §2, §3
smiles,measurement,setting,value
"Cc1ccc2nc(-c3ccc(F)cc3)c(CC(=O)N3CCCC3)n2c1.O=C(O)C(O)C(O)C(=O)O [Compound 17, 2-(4-Fluorophenyl)-6-methyl-3-(2-oxo-2-(pyrrolidin-1-yl)-ethyl)imidazo[1,2-a]pyridin-1-ium 3-carboxy-2,3-dihydroxy-propanoate]",Effect on basic startle response,"Wistar rats [1]; F(3,28) = 1.66, p = 0.2",did not affect significantly basic startle response
same,Effect on MK-801-induced PPI deficits,"Wistar rats [1]; prestimulus of 84 and 90 dB, p = 0.82 and p = 0.72",the effect did not reach statistical significance
same,"Papp at 5 h, 100 μM",PAMPA permeability assay,> 4 ×10⁻⁶ cm/s
same,Effect on amphetamine-induced hyperlocomotion,Wistar rats [2],significantly reduced amphetamine-induced hyperlocomotion
same,Effect on MK-801-induced hyperlocomotion,Wistar rats [3],reduced hyperlocomotion
